Experimental data published in US7799821B2, “Therapeutic compounds” (Allergan, Inc., priority 2004, dated 2010).
Read-outs that look alike come from different tables or passages of the source.

Legend:
[1] = biological target: T1, human EP2 receptors (Homo sapiens, UniProt P43116); assay: Competition radioligand binding ([3H]PGE2), EP2
T1 construct: expressed in transfected cells; host or cells: HEK 293

[2] = biological target: T2, EP4 receptors (Homo sapiens, UniProt P35408); assay: Radioligand binding ([3H]PGE2), EP4
T2 construct: expressed in transfected cells; host or cells: HEK-293
T2 sequence (P35408 whole entry): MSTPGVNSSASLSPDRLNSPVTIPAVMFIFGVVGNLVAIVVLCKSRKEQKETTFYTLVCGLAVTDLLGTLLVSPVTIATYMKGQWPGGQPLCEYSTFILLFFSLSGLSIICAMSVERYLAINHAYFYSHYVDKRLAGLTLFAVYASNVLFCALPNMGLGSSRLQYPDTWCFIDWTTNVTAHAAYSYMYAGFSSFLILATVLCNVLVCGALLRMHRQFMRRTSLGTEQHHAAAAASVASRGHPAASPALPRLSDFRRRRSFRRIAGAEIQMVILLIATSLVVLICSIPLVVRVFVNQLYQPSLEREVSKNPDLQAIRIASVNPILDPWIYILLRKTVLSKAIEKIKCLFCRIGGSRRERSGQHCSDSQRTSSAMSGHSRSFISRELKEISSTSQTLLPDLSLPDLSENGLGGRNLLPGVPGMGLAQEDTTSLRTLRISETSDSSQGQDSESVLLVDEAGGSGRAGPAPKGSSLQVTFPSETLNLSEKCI
Summary of the method: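 Membranes from HEK-293 cells stably expressing the human receptor, resuspended at 1 mg/ml protein in TME buffer pH 7.4. Competition against 5 nM [3H]PGE2 for 60 min at 25 °C, ended by filtration on GF/B filters; non-specific binding defined with 10^−5 M unlabeled PGE2.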

[3] = biological target: T3, hDP/Gqs5 (Homo sapiens, UniProt Q13258); assay: FLIPR calcium signal, hDP; type: cell-based; conditions: read-out: Other Receptors EC50 hDP
T3 construct: expressed in transfected cells; host or cells: HEK-293(EBNA)
T3 sequence (Q13258 1-359): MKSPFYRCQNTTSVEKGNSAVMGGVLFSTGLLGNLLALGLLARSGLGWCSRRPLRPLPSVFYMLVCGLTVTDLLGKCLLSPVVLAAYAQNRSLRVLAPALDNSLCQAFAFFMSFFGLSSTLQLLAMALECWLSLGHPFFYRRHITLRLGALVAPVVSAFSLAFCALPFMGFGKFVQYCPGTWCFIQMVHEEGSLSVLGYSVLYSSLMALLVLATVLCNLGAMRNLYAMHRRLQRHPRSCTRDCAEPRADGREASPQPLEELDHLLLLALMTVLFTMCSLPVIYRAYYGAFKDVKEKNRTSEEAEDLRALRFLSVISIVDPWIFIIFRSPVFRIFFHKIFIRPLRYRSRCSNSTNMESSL
Protocol: HEK-293(EBNA) cells, stably expressing one type or subtype of recombinant human prostaglandin receptors (prostaglandin receptors expressed: hDP/Gqs5; hEP1; hEP2/Gqs5; hEP3A/Gqi5; hEP4/Gqs5; hFP; hIP; hTP), were cultured in 100 mm culture dishes in high-glucose DMEM medium containing 10% fetal bovine serum, 2 mM 1-glutamine, 250 μg/ml geneticin (G418) and 200 μg/ml hygromycin B as selection markers, and 100 units/ml penicillin G, 100 μg/ml streptomycin and 0.25 μg/ml amphotericin B. • (b) Calcium Signal Studies on the FLIPR™
Cells were seeded at a density of 5×10^4 cells per well in Biocoat® Poly-D-lysine-coated black-wall, clear-bottom 96-well plates (Becton-Dickinson) and allowed to attach overnight in an incubator at 37° C. Cells were then washed two times with HBSS-HEPES buffer (Hanks Balanced Salt Solution without bicarbonate and phenol red, 20 mM HEPES, pH 7.4) using a Denley Cellwash plate washer (Labsystems). After 45 minutes of dye-loading in the dark, using the calcium-sensitive dye Fluo-4 AM at a final concentration of 2 μM, plates were washed four times with HBSS-HEPES buffer to remove excess dye leaving 100 μl in each well. Plates were re-equilibrated to 37° C. for a few minutes.
Cells were excited with an Argon laser at 488 nm, and emission was measured through a 510-570 nm bandwidth emission filter (FLIPR™, Molecular Devices, Sunnyvale, Calif.). Drug solution was added in a 50 μl volume to each well to give the desired final concentration. The peak increase in fluorescence intensity was recorded for each well. On each plate, four wells each served as negative (HBSS-HEPES buffer) and positive controls (standard agonists: BW245C (hDP); PGE2 (hEP1; hEP2/Gqs5; hEP3A/Gqi5; hEP4/Gqs5); PGF2α (hFP); carbacyclin (hIP); U-46619 (hTP), depending on receptor). The peak fluorescence change in each drug-containing well was then expressed relative to the controls.
Compounds were tested in a high-throughput (HTS) or concentration-response (CoRe) format. In the HTS format, forty-four compounds per plate were examined in duplicates at a concentration of 10^−5 M. To generate concentration-response curves, four compounds per plate were tested in duplicates in a concentration range between 10^−5 and 10^−11 M. The duplicate values were averaged. In either, HTS or CoRe format each compound was tested on at least 3 separate plates using cells from different passages to give an n≧3.

[4] = unit inferred, read-out: EP2 data Ki
[5] = unit inferred, read-out: EP4 data KI
[6] = pH 6.0, unit inferred, read-out: EP2 data Ki pH 6.0

T1 sequence (P43116 whole entry): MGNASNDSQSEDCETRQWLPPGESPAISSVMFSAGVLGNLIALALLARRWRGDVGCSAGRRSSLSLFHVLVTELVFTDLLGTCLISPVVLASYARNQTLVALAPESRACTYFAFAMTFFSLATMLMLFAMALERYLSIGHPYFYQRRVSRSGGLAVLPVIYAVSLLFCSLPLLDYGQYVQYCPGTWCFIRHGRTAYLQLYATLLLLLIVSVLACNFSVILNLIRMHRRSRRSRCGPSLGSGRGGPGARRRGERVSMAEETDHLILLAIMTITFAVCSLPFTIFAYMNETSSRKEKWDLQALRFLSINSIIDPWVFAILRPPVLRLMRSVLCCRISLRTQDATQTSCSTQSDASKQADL

CCCCCC(O)c1ccc(N2C(=O)CC[C@@H]2CCCc2ccc(C(=O)O)s2)cc1 (single isomer, unassigned) [drawing 178]
Ki [1, 4]: 21 nM
Ki [2, 5]: > 10000 nM
EC50 [3]: 0.812 µM

CCCCCC(O)c1ccc(N2C(=O)CC[C@@H]2COCc2ccc(C(=O)O)s2)cc1 (single isomer, unassigned) [drawing 177]
Ki [1, 4]: 116 nM
Ki [2, 5]: 6030 nM
EC50 [3]: 6.8 µM

CCCCCC(O)c1ccc(N2C(=O)CC[C@@H]2CCCc2ccc(C(=O)O)s2)cc1 (stereo partly shown) [drawing 145]
Ki [1, 4]: 23 nM
Ki [2, 5]: > 10000 nM
EC50 [3]: 1.23 µM

CC(C)(C)c1ccc(N2C(=O)CC[C@@H]2CCCCCCC(=O)O)cc1
Ki [1, 4]: > 10000 nM
Ki [2, 5]: > 10000 nM
EC50 [3]: > 10 µM

CCCCCC(O)c1ccc(N2C(=O)CC[C@@H]2CCCc2ccc(C(=O)O)s2)cc1 (single isomer, unassigned) [drawing 179]
Ki [1, 4]: 15 nM
Ki [2, 5]: 4850 nM
EC50 [3]: 0.296 µM

CC(C)(C)c1ccc(N2C(=O)CC[C@@H]2COCc2ccc(C(=O)O)s2)cc1
Ki [1, 6]: 27 nM
Ki [1, 4]: 501 nM
Ki [2, 5]: > 10000 nM
EC50 [3]: 2.32 µM

CCCCCC(C)c1ccc([C@@H]2[C@@H](C/C=C\CCCC(=O)O)[C@H](C#N)C[C@H]2C)cc1 (stereo partly shown)
Ki ([1]; Table 3, third part, read-out: BINDING-Ki (nM) EP2): 1250 nM
Ki ([2]; Table 3, third part, read-out: BINDING-Ki (nM) EP4): > 10000 nM

CC(C)(C)c1ccc(N2C(=O)CC[C@@H]2COCc2ccc(C(=O)O)o2)cc1
Ki [1, 6]: 189 nM
Ki [1, 4]: 4000 nM
Ki [2, 5]: > 10000 nM
EC50 [3]: 1.92 µM

CCCCCCC(O)c1ccc(N2C(=O)CC[C@@H]2COCc2ccc(C(=O)O)s2)cc1 (single isomer, unassigned) [drawing 152]
Ki [1, 4]: 229 nM
EC50 [3]: 6.83 µM

CCCCCCC(O)c1ccc(N2C(=O)CC[C@@H]2CCCc2ccc(C(=O)O)s2)cc1 (single isomer, unassigned) [drawing 156]
Ki [1, 4]: 8 nM
EC50 [3]: 0.106 µM

CCCCCC(O)c1ccc(N2C(=O)CC[C@@H]2CCCc2ccc(C(=O)O)s2)cc1 (stereo partly shown) [drawing 173]
Ki [1, 4]: 23 nM
Ki [2, 5]: > 10000 nM
EC50 [3]: 1.23 µM

CCCCCC(O)c1ccc(N2C(=O)CC[C@@H]2COCc2ccc(C(=O)O)s2)cc1 (single isomer, unassigned) [drawing 176]
Ki [1, 4]: 345 nM
Ki [2, 5]: > 10000 nM
EC50 [3]: 7.75 µM

CCCCCC(O)c1ccc(N2C(=O)CC[C@@H]2CCCc2ccc(C(=O)O)s2)cc1 (single isomer, unassigned) [drawing 180]
Ki [1, 4]: 229 nM
Ki [2, 5]: 3840 nM
EC50 [3]: 6.83 µM

CCCCCC(O)c1ccc(N2C(=O)CC[C@@H]2COCc2ccc(C(=O)O)s2)cc1 (single isomer, unassigned) [drawing 148]
Ki [1, 4]: 345 nM
Ki [2, 5]: > 10000 nM
EC50 [3]: 7.75 µM

CCCCCCC(O)c1ccc(N2C(=O)CC[C@@H]2CCCc2ccc(C(=O)O)s2)cc1 (single isomer, unassigned) [drawing 183]
Ki [1, 4]: 12 nM
EC50 [3]: 0.037 µM

CCCCCC(O)c1ccc(N2C(=O)CC[C@@H]2CCCc2ccc(C(=O)O)s2)cc1 (single isomer, unassigned) [drawing 151]
Ki [1, 4]: 15 nM
EC50 [3]: 0.296 µM

CCCCCCC(O)c1ccc(N2C(=O)CC[C@@H]2CCCc2ccc(C(=O)O)s2)cc1 (single isomer, unassigned) [drawing 184]
Ki [1, 4]: 8 nM
EC50 [3]: 0.106 µM

CCCCCCC(O)c1ccc(N2C(=O)CC[C@@H]2CCCc2ccc(C(=O)O)s2)cc1 (single isomer, unassigned) [drawing 155]
Ki [1, 4]: 12 nM
EC50 [3]: 0.037 µM

CCCCCC(=O)c1ccc(N2C(=O)CC[C@@H]2CCCc2ccc(C(=O)O)s2)cc1
Ki [1, 4]: 31 nM
Ki [2, 5]: > 10000 nM
EC50 [3]: 7.7 µM
